Legend:
[1] = tested on: HASMC; test: NO-stimulated HASMC adhesion on type I collagen; format: cell-based, human; conditions: DEA/NO 10 μM, 1 h
Protocol: Cell adhesion was carried out in 96-well culture plates. After pre-coating wells with type I collagen (3 μg/ml in DPBS) harvested cells were plated at a density of 1×10^4 cells/well in medium plus 0.1% BSA and treatment agents and incubated in 5% CO2 for 1 h. Wells were washed with PBS and cells fixed with 1% glutaraldehyde for 10 min., washed and stained with 1% crystal violet for 20 min. Excess stain was rinsed away, adherent cells treated with 10% acetic acid, and plates read at 570 nm.

[2] = tested on: HASMC; test: HASMC proliferation (MTS); format: cell-based, human; conditions: DETA/NO 10 μM, 72 h
Protocol: Proliferation of vascular cells was measured with a non-radioactive colorimetric assay (CellTiter 96, Promega, Madison, Wis.). Briefly, to each well of a 96-well culture plate (Nunc, Denmark) 5×10^3 cells were suspended in 100 μl of culture medium with indicated treatments and incubated for 72 hours at 37° C. in a 5% CO2 atmosphere. Following incubation 20 μl of tetrazolium compound/solubilization agent was added and incubation continued for 4 hours under the same conditions. The plate was then read on a MR580 Microelisa Auto Reader (Dynatech) at a wavelength of 490 nm. Appropriate zero time controls were run for all assays and the optical density readings obtained then subtracted from those obtained at 72 hours.

[3] = tested on: HASMC; test: Intracellular cGMP in HASMC; format: cell-based, human; conditions: DEA/NO 10 μM, 5 minutes
[4] = tested on: murine ASMC (WT, CD36 null, CD47 null); test: Intracellular cGMP in murine ASMC; format: cell-based, mouse
Method in brief: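 Aortic smooth muscle cells from wild-type C57Bl/6, CD36-null or CD47-null mice, passage 1–4, plated overnight in full growth medium. Weaned to SM-GM + 0.1% BSA before treatment with NO donor and other agents. Intracellular cGMP measured by enzyme immunoassay.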

CBD: recombinant C-terminal cell-binding domain (G module) of TSP1
NO-stimulated HASMC adhesion on type I collagen [1]: slightly less active but also dose-dependently inhibited | NO-stimulated HASMC proliferation [2]: inhibited NO-stimulated HASMC proliferation | NO-stimulated cGMP levels in HASMC [3]: equipotent dose-dependent inhibitors | NO-stimulated cGMP ([4]; CD36 null MASMC): completely inhibited | NO-stimulated cGMP ([4]; CD47 null MASMC): did not significantly inhibit

From patent US8865672B2, “Prevention of tissue ischemia and related methods” (The United States of America, as represented by the …, priority 2006, dated 2014)
